The text below walks through data of publication PMC4519322 (PLoS Pathogens, 2015).

The subject of one assay is Y289H rWSN. In kind it is cell-based, influenza A virus. As to conditions: read-out: IC50 (μM) Y289H rWSM (H1N1).
For the next assay, the system named is A/WSN/1933 (H1N1). In kind it is cell-based, influenza A virus.

Regarding `O=C(O)c1cc(-c2ccc(-c3ccccc3)cc2)nc2ccccc12` [RK424], in the assay on Y289H rWSN, the IC50 (as a rule, the point on the concentration scale where inhibition reaches its midpoint) is 0.3 ± 0.1 µM. Further, in the assay with A/WSN/1933 (H1N1), the “sensitivity of RK424 3rd passage virus” value is recorded as “susceptible” and the “sensitivity of nucleozin 4th passage virus” value was “but not RK424”.

`Cc1onc(-c2ccccc2)c1C(=O)N1CCN(c2ccc([N+](=O)[O-])cc2Cl)CC1` [Nucleozin, nucleozin, reference compound]: the IC50 with Y289H rWSN is above 100 µM. In the assay on A/WSN/1933 (H1N1), the “sensitivity of RK424 3rd passage virus” value is recorded as “susceptible” and the “sensitivity of nucleozin 4th passage virus” value is reported as “exhibited resistance”.
